ChEMBL document CHEMBL3112450, “Synthesis and in vitro antitumor evaluation of primary amine substituted quinazoline linked benzimidazole” (Bioorg Med Chem Lett, 2014)

How the values were obtained:
Type in all cases: functional
[1] = tested on: SF-539; assay: Cytotoxicity against human SF539 cells assessed as cell growth at 10^-4 M after 48 hrs by SRB assay; conditions: SF-539, 48 h, read-out: Activity
[2] = tested on: LOX IMVI; assay: Cytotoxicity against human LOXIMVI cells assessed as cell growth at 10^-4 M after 48 hrs by SRB assay; conditions: read-out: Activity
[3] = tested on: U-251; assay: Cytotoxicity against human U251 cells assessed as cell growth at 10^-4 M after 48 hrs by SRB assay; conditions: U-251, 48 h, read-out: Activity
[4] = tested on: T47D; assay: Cytotoxicity against human T47D cells assessed as cell growth at 10^-7 M after 48 hrs by SRB assay; conditions: read-out: Activity
[5] = tested on: A498; assay: Cytotoxicity against human A498 cells assessed as cell growth at 10^-7 M after 48 hrs by SRB assay; conditions: A498, 48 h, read-out: Activity
[6] = tested on: MDA-MB-468; assay: Cytotoxicity against human MDA-MB-468 cells assessed as cell growth at 10^-7 M after 48 hrs by SRB assay; conditions: MDA-MB-468, 48 h, read-out: Activity
[7] = tested on: CCRF-CEM; assay: Cytotoxicity against human CCRF-CEM cells assessed as cell growth at 10^-7 M after 48 hrs by SRB assay; conditions: read-out: Activity
[8] = tested on: HOP-62; assay: Cytotoxicity against human HOP62 cells assessed as cell growth at 10^-4 M after 48 hrs by SRB assay; conditions: HOP-62, 48 h, read-out: Activity
[9] = tested on: SNB-19; assay: Cytotoxicity against human SNB19 cells assessed as cell growth at 10^-6 M after 48 hrs by SRB assay; conditions: SNB-19, 48 h, read-out: Activity
[10] = tested on: Malme-3M; assay: Cytotoxicity against human MALME-3M cells after 48 hrs by SRB assay
[11] = tested on: BT-549; assay: Cytotoxicity against human BT549 cells after 48 hrs by SRB assay; conditions: BT-549, 48 h
[12] = tested on: RXF 393; assay: Cytotoxicity against human RXF393 cells assessed as cell growth at 10^-8 M after 48 hrs by SRB assay; conditions: RXF 393, 48 h, read-out: Activity
[13] = tested on: SK-MEL-5; assay: Cytotoxicity against human SK-MEL-5 cells assessed as cell growth at 10^-6 M after 48 hrs by SRB assay; conditions: SK-MEL-5, 48 h, read-out: Activity
[14] = tested on: PC-3; assay: Cytotoxicity against human PC3 cells assessed as cell growth at 10^-8 M after 48 hrs by SRB assay; conditions: PC-3, 48 h, read-out: Activity
[15] = tested on: OVCAR-3; assay: Cytotoxicity against human OVCAR3 cells assessed as cell growth at 10^-4 M after 48 hrs by SRB assay; conditions: OVCAR-3, 48 h, read-out: Activity
[16] = tested on: OVCAR-3; assay: Cytotoxicity against human OVCAR3 cells assessed as cell growth at 10^-8 M after 48 hrs by SRB assay; conditions: OVCAR-3, 48 h, read-out: Activity
[17] = tested on: NCI-H23; assay: Cytotoxicity against human NCI-H23 cells assessed as cell growth at 10^-6 M after 48 hrs by SRB assay; conditions: NCI-H23, 48 h, read-out: Activity
[18] = tested on: MDA-MB-435; assay: Cytotoxicity against human MDA-MB-435 cells after 48 hrs by SRB assay; conditions: MDA-MB-435, 48 h
[19] = tested on: TK-10; assay: Cytotoxicity against human TK10 cells assessed as cell growth at 10^-8 M after 48 hrs by SRB assay; conditions: TK-10, 48 h, read-out: Activity
[20] = tested on: CCRF-CEM; assay: Cytotoxicity against human CCRF-CEM cells assessed as cell growth at 10^-4 M after 48 hrs by SRB assay; conditions: read-out: Activity
[21] = tested on: RPMI-8226; assay: Cytotoxicity against human RPMI8226 cells assessed as cell growth at 10^-8 M after 48 hrs by SRB assay; conditions: RPMI-8226, 48 h, read-out: Activity
[22] = tested on: RXF 393; assay: Cytotoxicity against human RXF393 cells assessed as cell growth at 10^-6 M after 48 hrs by SRB assay; conditions: RXF 393, 48 h, read-out: Activity
[23] = tested on: SN12C; assay: Cytotoxicity against human SN12C cells assessed as cell growth at 10^-8 M after 48 hrs by SRB assay; conditions: read-out: Activity
[24] = tested on: A498; assay: Cytotoxicity against human A498 cells assessed as cell growth at 10^-8 M after 48 hrs by SRB assay; conditions: A498, 48 h, read-out: Activity
[25] = tested on: MCF7; assay: Cytotoxicity against human MCF7 cells after 48 hrs by SRB assay; conditions: MCF7, 48 h
[26] = tested on: A498; assay: Cytotoxicity against human A498 cells assessed as cell growth at 10^-4 M after 48 hrs by SRB assay; conditions: A498, 48 h, read-out: Activity
[27] = tested on: ACHN; assay: Cytotoxicity against human ACHN cells assessed as cell growth at 10^-6 M after 48 hrs by SRB assay; conditions: read-out: Activity
[28] = tested on: KM12; assay: Cytotoxicity against human KM12 cells assessed as cell growth at 10^-8 M after 48 hrs by SRB assay; conditions: KM12, 48 h, read-out: Activity
[29] = tested on: HCC 2998; assay: Cytotoxicity against human HCC2998 cells assessed as cell growth at 10^-7 M after 48 hrs by SRB assay; conditions: HCC 2998, 48 h, read-out: Activity
[30] = tested on: SN12C; assay: Cytotoxicity against human SN12C cells assessed as cell growth at 10^-6 M after 48 hrs by SRB assay; conditions: read-out: Activity
[31] = tested on: MCF7; assay: Cytotoxicity against human MCF7 cells assessed as cell growth at 10^-8 M after 48 hrs by SRB assay; conditions: MCF7, 48 h, read-out: Activity
[32] = tested on: MDA-MB-435; assay: Cytotoxicity against human MDA-MB-435 cells assessed as cell growth at 10^-8 M after 48 hrs by SRB assay; conditions: MDA-MB-435, 48 h, read-out: Activity
[33] = tested on: 786-0; assay: Cytotoxicity against human 786-0 cells assessed as cell growth at 10^-8 M after 48 hrs by SRB assay; conditions: 786-0, 48 h, read-out: Activity
[34] = tested on: LOX IMVI; assay: Cytotoxicity against human LOXIMVI cells assessed as cell growth at 10^-6 M after 48 hrs by SRB assay; conditions: read-out: Activity
[35] = tested on: HOP-62; assay: Cytotoxicity against human HOP62 cells after 48 hrs by SRB assay; conditions: HOP-62, 48 h
[36] = tested on: SNB-75; assay: Cytotoxicity against human SNB75 cells assessed as cell growth at 10^-7 M after 48 hrs by SRB assay; conditions: SNB-75, 48 h, read-out: Activity
[37] = tested on: SNB-75; assay: Cytotoxicity against human SNB75 cells assessed as cell growth at 10^-6 M after 48 hrs by SRB assay; conditions: SNB-75, 48 h, read-out: Activity
[38] = tested on: MDA-MB-468; assay: Cytotoxicity against human MDA-MB-468 cells assessed as growth inhibition at 10 uM after 48 hrs by SRB assay; conditions: MDA-MB-468, 48 h, read-out: GI
[39] = tested on: HCT-116; assay: Cytotoxicity against human HCT116 cells assessed as growth inhibition at 10 uM after 48 hrs by SRB assay; conditions: HCT-116, 48 h, read-out: GI
[40] = Cytotoxicity against human UO31 cells assessed as growth inhibition at 10 uM after 48 hrs by SRB assay; conditions: UO-31, 48 h, read-out: GI

## C=CCn1c(C)nc2ccc(Nc3nc(Nc4ccc5nc(C)n(CC=C)c5c4)c4ccccc4n3)cc21
[1]
  growth at 100 µM: -61%
[2]
  growth at 100 µM: 7%
[3]
  growth at 100 µM: -22%
[4]
  growth at 0.1 µM: 92%
[5]
  growth at 0.1 µM: 64%
[6]
  growth at 0.1 µM: 92%
[7]
  growth at 0.1 µM: 96%
[8]
  growth at 100 µM: -36%
[9]
  growth at 1 µM: 85%
[10]
  GI50: 1.9 µM
  TGI: 3.68 µM
[11]
  GI50: 1.62 µM
  TGI: 3.16 µM
[12]
  growth at 0.01 µM: 95%
[13]
  growth at 1 µM: 91%
[14]
  growth at 0.01 µM: 93%
[15]
  growth at 100 µM: -48%
[16]
  growth at 0.01 µM: 99%
[17]
  growth at 1 µM: 93%
[18]
  GI50: 1.73 µM
  TGI: 3.33 µM
[19]
  growth at 0.01 µM: 100%
[20]
  growth at 100 µM: 2%
[21]
  growth at 0.01 µM: 99%
[22]
  growth at 1 µM: 99%
[23]
  growth at 0.01 µM: 96%
[24]
  growth at 0.01 µM: 69%
[25]
  GI50: 1.54 µM
  TGI: 2.88 µM
[26]
  growth at 100 µM: -21%
[27]
  growth at 1 µM: 91%
[28]
  growth at 0.01 µM: 96%
[29]
  growth at 0.1 µM: 101%
[30]
  growth at 1 µM: 90%
[31]
  growth at 0.01 µM: 92%
[32]
  growth at 0.01 µM: 100%
[33]
  growth at 0.01 µM: 98%
[34]
  growth at 1 µM: 83%
[35]
  GI50: 1.63 µM
  TGI: 2.98 µM

## C=CCn1c(C)nc2cc(Nc3nc(Nc4ccc5nc(C)n(CC=C)c5c4)c4ccccc4n3)ccc21
[1]
  growth at 100 µM: -94%
[2]
  growth at 100 µM: -71%
[3]
  growth at 100 µM: -31%
[4]
  growth at 0.1 µM: 94%
[5]
  growth at 0.1 µM: 100%
[6]
  growth at 0.1 µM: 89%
[36]
  growth at 0.1 µM: 93%
[7]
  growth at 0.1 µM: 107%
[8]
  growth at 100 µM: -38%
[9]
  growth at 1 µM: 54%
[10]
  GI50: 2.27 µM
  TGI: 4.1 µM
[11]
  GI50: 1.68 µM
  TGI: 3.1 µM
[12]
  growth at 0.01 µM: 101%
[13]
  growth at 1 µM: 78%
[14]
  growth at 0.01 µM: 98%
[16]
  growth at 0.01 µM: 100%
[17]
  growth at 1 µM: 100%
[18]
  GI50: 0.532 µM
  TGI: 1.82 µM
[19]
  growth at 0.01 µM: 96%
[37]
  growth at 1 µM: 18%
[20]
  growth at 100 µM: -19%
[21]
  growth at 0.01 µM: 100%
[22]
  growth at 1 µM: 22%
[23]
  growth at 0.01 µM: 94%
[24]
  growth at 0.01 µM: 101%
[25]
  GI50: 0.209 µM
[26]
  growth at 100 µM: -85%
[27]
  growth at 1 µM: 35%
[28]
  growth at 0.01 µM: 96%
[29]
  growth at 0.1 µM: 100%
[30]
  growth at 1 µM: 65%
[31]
  growth at 0.01 µM: 101%
[32]
  growth at 0.01 µM: 97%
[33]
  growth at 0.01 µM: 99%
[34]
  growth at 1 µM: -85%
[35]
  GI50: 0.232 µM
  TGI: 0.552 µM

## C=CCn1c(C)nc2ccc(Nc3nc(Nc4ccc(F)cc4)nc4ccccc34)cc21
[1]
  growth at 100 µM: -92%
[38]
  inhibition of growth at 10 µM: 50%
[2]
  growth at 100 µM: -42%
[3]
  growth at 100 µM: -80%
[4]
  growth at 0.1 µM: 85%
[5]
  growth at 0.1 µM: 83%
[39]
  inhibition of growth at 10 µM: 70%
[6]
  growth at 0.1 µM: 74%
[36]
  growth at 0.1 µM: 80%
[7]
  growth at 0.1 µM: 102%
[8]
  growth at 100 µM: -46%
[9]
  growth at 1 µM: 86%
[10]
  GI50: 13.1 µM
  LC50: 97.3 µM
  TGI: 35.7 µM
[11]
  GI50: 3.35 µM
  LC50: 73.1 µM
  TGI: 18.1 µM
[12]
  growth at 0.01 µM: 98%
[13]
  growth at 1 µM: 73%
[14]
  growth at 0.01 µM: 98%
[15]
  growth at 100 µM: -90%
[16]
  growth at 0.01 µM: 97%
[17]
  growth at 1 µM: 88%
[18]
  GI50: 4 µM
  LC50 (concentration killing 50% of cells): 92.4 µM
  TGI: 20.4 µM
[19]
  growth at 0.01 µM: 99%
[37]
  growth at 1 µM: 76%
[20]
  growth at 100 µM: -23%
[21]
  growth at 0.01 µM: 106%
[22]
  growth at 1 µM: 64%
[40]
  inhibition of growth at 10 µM: 50%
[23]
  growth at 0.01 µM: 93%
[24]
  growth at 0.01 µM: 81%
[25]
  GI50: 1.48 µM
  TGI: 3.44 µM
[26]
  growth at 100 µM: -68%
[27]
  growth at 1 µM: 94%
[28]
  growth at 0.01 µM: 95%
[29]
  growth at 0.1 µM: 97%
[30]
  growth at 1 µM: 81%
[31]
  growth at 0.01 µM: 91%
[32]
  growth at 0.01 µM: 97%
[33]
  growth at 0.01 µM: 93%
[34]
  growth at 1 µM: 96%
[35]
  GI50: 1.88 µM
  TGI: 3.76 µM

## C=CCn1c(C)nc2cc(Nc3nc(NCCO)nc4ccccc34)ccc21
[38]
  inhibition of growth at 10 µM: 40%
[39]
  inhibition of growth at 10 µM: 30%
[40]
  inhibition of growth at 10 µM: 30%
